One series concerns MCMV. The experiment in a line: Anti-MCMV cytopathogenicity test. Type of series: cell-based, murine cytomegalovirus. The note with it: for EC50: Murid betaherpesvirus 1, 120 h, MCMV-infected 3T3 mouse cells, M.O.I. 0.05–0.1, 5 days; for SI MCMV: selectivity index, 3T3 CC50 / MCMV EC50. How it is done:
Anti-HCMV (Anti-Human Cytomegalovirus) and anti-MCMV (Anti-Murine Cytomegalovirus) cytopathogenicity tests:
(§1) The test compounds were employed as 50 millimolar (mM) solutions in dimethyl sulphoxide (DMSO). Ganciclovir, foscarnet and cidofovir served as reference compounds. Following the addition of in each case 2 μl of the 50, 5, 0.5 and 0.05 mM DMSO stock solutions to in each case 98μ of cell culture medium in row 2 A-H, in duplicate determinations, 1:2 dilutions with in each case 50 μl of medium were prepared up to row 11 of the 96-well plate. The wells in rows 1 and 12 each contained 50 μl of medium. 150 μl of a suspension of 1×10^4 cells (human lung fibroblasts [HELF]) (row 1=cell control) or, in rows 2–12, a mixture of HCMV-infected and non-infected HELF cells (M.O.I.=0.001–0.002), i.e. 1–2 infected cells per 1000 non-infected cells, were then pipetted into each of the wells. Row 12 (without substance) served as virus control. The final test concentrations were 250–0.0005 μM. The plates were incubated at 37° C./5% CO2 for 6 days, i.e. until all cells in the virus controls had been infected (100% cytopathogenic effect [CPE]). The wells were then fixed and stained by adding a mixture of Formalin and Giemsa Stain (30 minutes), washed with doubly distilled water and dried in a drying cabinet at 50° C. The plates were then evaluated visually using an overhead microscope (plaque multiplier from Technomara).
(§2) Compared to the process described above for HCMV, the anti-MCMV test was carried out with the following changes: a cell-free virus suspension was mixed with a concentrated cell suspension (3T3 mouse cells) and incubated for 15 minutes for adsorption of the viruses, and the suspension was then diluted with medium to 1.3×10^5 cells/ml with a final multiplicity of infection (M.O.I.) of from 0.05–0.1, and in each case 150 μl were dispensed into the wells. The incubation time was 5 days.
For orientation: Protection from cytopathic effect is a common read-out in antiviral testing.

Series [1] can be described thus: Cytotoxicity on 3T3 cells in the anti-MCMV cytopathogenicity test. As to conditions: mouse, 3T3 mouse cells, 5 days incubation. Type of series: cell-based. On the procedure: as §1
(§3) CC50 (HELF)=substance concentration in μM at which, compared to the untreated cell control, no visible cytostatic effects on the cells were noticeable;
as §2

A short description of series [2]: Cytotoxicity on HELF cells in the anti-HCMV cytopathogenicity test. Type of series: cell-based. As to conditions: human lung fibroblasts (HELF cells), 6 days incubation, visual evaluation. On the procedure:
as §1, with “[…],” for “2 A-H,”, “2-12,” for “2–12,”, “(M.O.I.=0.001-0.002),” for “(M.O.I.=0.001–0.002),”, “1-2” for “1–2”, “250-0.0005” for “250–0.0005”, “Technomara). From the test plates, the following data were determined: CC50 (HELF)=substance concentration in μM at which, compared to the untreated cell control, no visible cytostatic effects on the cells were noticeable;” for “Technomara).”

The test system of the next series is HCMV. The experiment in a line: Anti-HCMV cytopathogenicity test. Type of series: cell-based, human cytomegalovirus. As to conditions: for EC50: Human betaherpesvirus 5, 144 h, inhibition of CPE by 50% in HCMV-infected HELF cells, M.O.I. 0.001–0.002, 6 days; for SI HCMV: selectivity index = CC50 (HELF)/EC50 (HCMV). On the procedure: (§4) Anti-HCMV (Anti-Human Cytomegalovirus) and anti-MCMV (Anti-Murine Cytomegalovirus) cytopathogenicity tests: The test compounds were employed as 50 millimolar (mM) solutions in dimethyl sulphoxide (DMSO). Ganciclovir, foscarnet and cidofovir served as reference compounds. Following the addition of in each case 2 μl of the 50, 5, 0.5 and 0.05 mM DMSO stock solutions to in each case 98μ of cell culture medium in row […], in duplicate determinations, 1:2 dilutions with in each case 50 μl of medium were prepared up to row 11 of the 96-well plate. The wells in rows 1 and 12 each contained 50 μl of medium. 150 μl of a suspension of 1×10^4 cells (human lung fibroblasts [HELF]) (row 1=cell control) or, in rows 2-12, a mixture of HCMV-infected and non-infected HELF cells (M.O.I.=0.001-0.002), i.e. 1-2 infected cells per 1000 non-infected cells, were then pipetted into each of the wells. Row 12 (without substance) served as virus control. The final test concentrations were 250-0.0005 μM. The plates were incubated at 37° C./5% CO2 for 6 days, i.e. until all cells in the virus controls had been infected (100% cytopathogenic effect [CPE]). The wells were then fixed and stained by adding a mixture of Formalin and Giemsa Stain (30 minutes), washed with doubly distilled water and dried in a drying cabinet at 50° C. The plates were then evaluated visually using an overhead microscope (plaque multiplier from Technomara). From the test plates, the following data were determined: EC50 (HCMV)=substance concentration in μM which inhibits the CPE (cytopathic effect) by 50% compared to the untreated virus control; SI (selectivity index)=CC50 (HELF)/EC50 (HCMV).

Another series relates to 3T3 mouse cells. In words: Cytotoxicity on 3T3 cells in the anti-MCMV cytopathogenicity test. The note with it: 5 days incubation. It is filed as cell-based. On the procedure: as §1, §3, §2
The subject of series [3] is human lung fibroblasts [HELF]. The experiment in a line: Cytotoxicity on HELF cells in the anti-HCMV cytopathogenicity test. It is filed as cell-based. The note with it: 6 days incubation, visual evaluation. On the procedure: as §4, with “The” for “Anti-HCMV (Anti-Human Cytomegalovirus) and anti-MCMV (Anti-Murine Cytomegalovirus) cytopathogenicity tests: The”, “CC50 (HELF)=substance” for “EC50 (HCMV)=substance”, “at which,” for “which inhibits the CPE (cytopathic effect) by 50%”, “cell control, no visible cytostatic effects on the cells were noticeable;” for “virus control; SI (selectivity index)=CC50 (HELF)/EC50 (HCMV).”

Molecules are shown by their SMILES. Some results are limits rather than exact numbers.

Regarding `CC(C)(CF)C(=O)Nc1cccc(NS(=O)(=O)c2ccc(-c3noc(-c4ccccn4)n3)cc2)c1` [Example 1, 3-Fluoro-2,2-dimethyl-N-{3-[({4-[5-(2-pyridinyl)-1,2,4-oxadiazol-3-yl]phenyl}-sulphonyl)amino]phenyl}propanamide], the melting point amounted to 178.9 °C. For the same compound, in the series with MCMV, the response was half-maximal at 0.019 µM (EC50) and the “SI MCMV” value is listed as 1737. Moreover, in series [1], half-maximal cytotoxicity (CC50 at 5 days) was put at 33 µM. This compound registered a CC50 at 6 days in series [2] of 110 µM. Moreover, in the series with HCMV, the concentration giving a half-maximal response (EC50) was found to be 0.055 µM and the “SI HCMV” value was determined as 2000.

With `CC1(C(=O)Nc2cccc(NS(=O)(=O)c3ccc(-c4noc(-c5ccccn5)n4)cc3)c2)CC1` [Example 3, 1-Methyl-N-{3-[({4-[5-(2-pyridinyl)-1,2,4-oxadiazol-3-yl]phenyl}sulphonyl)-amino]phenyl}cyclopropanecarboxamide], the melting point stood at 202 °C. In addition, in the series with MCMV, the EC50 came to 0.008 µM and the “SI MCMV” value is listed as 2875. Also, in series [1], the 50% cytotoxic concentration (CC50) at 5 days was 23 µM. The CC50 at 6 days in series [2] was less than 140 µM. In the series on HCMV, the concentration for a half-maximal effect (EC50) came to 0.018 µM and the “SI HCMV” value is recorded as less than 7778.

Take `Cc1cc(-c2nc(-c3ccc(S(=O)(=O)Nc4cccc(NC(=O)C5(C)CC5)c4)cc3)no2)n[nH]1` [Example 9, 1-Methyl-N-{3-[({4-[5-(5-methyl-1H-pyrazol-3-yl)-1,2,4-oxadiazol-3-yl]phenyl}-sulphonyl)amino]phenyl}cyclopropanecarboxamide]: in the series on MCMV, the EC50 worked out at 0.068 µM and the “SI MCMV” value came out at 59. Besides, the 50% cytotoxic concentration (CC50) in the series on 3T3 mouse cells was 4 µM. In addition, half-maximal cytotoxicity in series [3] (CC50) was put at 39 µM. In addition, in the series with HCMV, the EC50 worked out at 0.018 µM and the “SI HCMV” value is reported as 2167.

Consider `CC(=O)Nc1cccc(-c2nc(-c3ccc(S(=O)(=O)Nc4cccc(NC(=O)C5(C)CC5)c4)cc3)no2)n1` [Example 132, N-(3-{[(4-{5-[6-(Acetylamino)-2-pyridinyl]-1,2,4-oxadiazol-3-yl}phenyl)sulphonyl]-amino}phenyl)-1-methylcyclopropanecarboxamide], for which, in the series with MCMV, a half-maximal response (EC50) required 0.003 µM and the “SI MCMV” value amounted to 767. The compound also yielded a CC50 at 5 days in series [1] of 2.3 µM. In series [2], this compound had a 50% cytotoxic concentration (CC50) at 6 days of 47 µM. In the series on HCMV, the EC50 is 0.006 µM and the “SI HCMV” value is 7833.

Consider `CC1(C(=O)Nc2cccc(NS(=O)(=O)c3ccc(-c4noc(-c5cccc(N)n5)n4)cc3)c2)CC1` [Example 134, N-{3-[({4-[5-(6-Amino-2-pyridinyl)-1,2,4-oxadiazol-3-yl]phenyl}sulphonyl)amino]-phenyl}-1-methylcyclopropanecarboxamide], for which, in the series on MCMV, a half-maximal response (EC50) required 0.0047 µM and the “SI MCMV” value is listed as 1617. In series [1], this compound returned a 50% cytotoxic concentration (CC50) at 5 days of 8 µM. Besides, the midpoint of cytotoxicity in series [2], the CC50 at 6 days, lay at 94 µM. Further, in the series on HCMV, the concentration for a half-maximal effect (EC50) is 0.009 µM and the “SI HCMV” value was found to be 10444.

Regarding `CC(C)(CF)C(=O)Nc1cccc(NS(=O)(=O)c2ccc(-c3noc(-c4cccc(N)n4)n3)cc2)c1` [Example 135, N-{3-[({4-[5-(6-Amino-2-pyridinyl)-1,2,4-oxadiazol-3-yl]phenyl}sulphonyl)amino]-phenyl}-3-fluoro-2,2-dimethylpropanamide], in the series on MCMV, it took 0.011 µM to reach a half-maximal effect (EC50) and the “SI MCMV” value stood at 273. In series [1], this compound showed a 50% cytotoxic concentration (CC50) at 5 days of 3 µM. The same compound showed a half-maximal cytotoxic concentration (CC50) at 6 days in series [2] of 47 µM. For the same compound, in the series with HCMV, the EC50 was 0.0052 µM and the “SI HCMV” value was found to be 9039.

For orientation: EC50 means the concentration giving half of the maximal effect. One may read the CC50 as the concentration at which the toxic effect on the cells reaches its halfway point. By melting point is commonly meant the temperature of the solid-liquid transition.

The values are drawn from patent US7115612B2, “Arylsulfonamides as antiviral agents” (Bayer Aktiengesellschaft, priority 2001, dated 2006).
